Results from patent US11576326B2, “Wheat with new alleles of Rht-B1” (Commonwealth Scientific and Industrial Research Organisation, priority 2012, dated 2023).

How the values were obtained:
[1] = system: barley seedlings (first leaf); assay: Maximal daily leaf elongation rate (LERmax) of the first leaf of barley seedlings, with GA3; format: in vivo
Text: The methods have been previously described (Chandler and Robertson, 1999). Curves were fitted to data points using a 4-parameter Hill equation.
The maximal daily rate of elongation (LERmax) achieved by the first leaf under standard conditions was a robust measure of GA responsiveness (Chandler and Robertson, 1999) and was therefore determined for all of the barley overgrowth lines and their parents (Table 5). […] Three overgrowth alleles (sln1m, sln1n and sln1s) were compared in both their original dwarfing genetic background as well as after back-crossing to the tall WT background. […] In a wild-type background, the overgrowth alleles tended to enhance growth rates.

[2] = system: barley endosperm half-grains; assay: α-Amylase production by endosperm half-grains incubated with GA3 (Ceralpha procedure); settings: for α-Amylase at 42 h / α-Amylase at 72 h: GA3 (1 μM), 22° C.
Protocol: Endosperm half-grains were prepared and incubated with or without GA3 (1 μM) at 22° C. for 0, 42 or 72 h. To each sample, 1.5 mL of a solution of 10 mm CaCl2 was added, the half-grains were homogenised, and an aliquot of 1 mL was clarified by centrifugation (20,000 g for 5 min). The supernatant was analyzed for α-amylase activity using the Megazyme alpha-amylase (Ceralpha) procedure.
The production of α-amylase by endosperm half-grains of wild-type barley is dependent on the presence of an active GA. Therefore, monitoring α-amylase activity in the absence of an active GA provided a convenient measure of the extent of ‘basal’ GA signaling in the mutants. […] Among the overgrowth derivatives of Sln1d, the Sln1d.9 derivative was exceptional, accumulating very high levels of α-amylase at both 42 h and 72 h incubation, despite this line showing only a modest restoration of growth rate (Table 5).

Compound: C=C1C[C@]23C[C@@]1(O)CC[C@H]2[C@@]12C=C[C@H](O)[C@@](C)(C(=O)O1)[C@H]2[C@@H]3C(=O)O [GA3]
- LERmax ([1]; line Him (Himalaya), genotype WT): 52.3 ± 0.1 mm · d^−1
- LERmax ([1]; line M463, genotype grd2b): 49.8 ± 0.8 mm · d^−1
- LERmax ([1]; line M640, genotype Sln1d): 12.1 ± 0.3 mm · d^−1
- LERmax ([1]; line M693, genotype gse1n): 35.3 ± 1.2 mm · d^−1
- increase in α-amylase activity over basal levels ([2]; 72 h incubation with GA3, control lines WT, grd2b): ~15 fold
- α-Amylase at 42 h ([2]; line Him, genotype WT): 9.81 ± 0.86 Ceralpha units/grain
- α-Amylase at 42 h ([2]; line M463, genotype grd2b): 7.20 ± 0.73 Ceralpha units/grain
- α-Amylase at 72 h ([2]; line Him, genotype WT): 23.1 ± 2.8 Ceralpha units/grain
- α-Amylase at 72 h ([2]; line M463, genotype grd2b): 18.9 ± 1.4 Ceralpha units/grain
